From patent US20260297542A1, “HERBICIDE RESISTANT PLANTS” (SYNGENTA CROP PROTECTION AG, priority 2023, published 2026) come the findings set out here.

Positions count from the first letter of the chain named.

Common to all, as to test: E. coli hemG growth inhibition by herbicide, AtPPO1 variant
What all share (format): cell-based
Holding throughout (conditions): read-out: percentage growth inhibition

The target in assay [1] is T1, AtPPO1 Y426C (Arabidopsis thaliana, UniProt P55826, Y426C).
T1 construct: expressed in transfected cells; host or cells: E. coli BL21(DE3) hemG (pET24a, T7 promoter)
T1 sequence (P55826 35-537 Y426C): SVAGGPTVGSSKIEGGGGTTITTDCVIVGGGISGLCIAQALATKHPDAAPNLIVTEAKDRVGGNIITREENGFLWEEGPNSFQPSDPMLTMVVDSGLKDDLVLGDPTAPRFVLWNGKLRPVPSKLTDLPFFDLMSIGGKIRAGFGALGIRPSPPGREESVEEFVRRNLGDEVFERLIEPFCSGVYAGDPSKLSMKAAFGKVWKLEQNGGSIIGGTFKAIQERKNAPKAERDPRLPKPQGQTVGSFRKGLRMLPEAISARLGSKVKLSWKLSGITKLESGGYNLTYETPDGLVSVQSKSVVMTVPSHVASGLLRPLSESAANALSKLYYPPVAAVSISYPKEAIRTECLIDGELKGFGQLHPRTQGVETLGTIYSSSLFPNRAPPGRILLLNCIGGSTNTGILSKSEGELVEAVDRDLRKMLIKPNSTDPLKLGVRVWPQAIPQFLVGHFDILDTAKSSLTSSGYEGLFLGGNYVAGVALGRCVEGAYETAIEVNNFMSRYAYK
In a few lines: (§1)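 Read-out is OD600 at 24 h post inoculation, converted to percent growth inhibition relative to DMSO. The hemG-deleted BL21(DE3) host relied on the plasmid-borne AtPPO1 variant, induced with 0.1 mM IPTG, with 6.25 ppm herbicide 0 or E or 0.78 ppm herbicide B present at 37° C.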

Assay [2] addresses T2, AtPPO1 G510N (Arabidopsis thaliana, UniProt P55826, G510N).
T2 construct: expressed in transfected cells; host or cells: E. coli BL21(DE3) hemG, pET24a plasmid
T2 sequence (P55826 35-537 G510N): T1 sequence (P55826 35-537 Y426C) with C392Y, G476N
The essentials:
as §1

In assay [3] the target is T3, AtPPO1 Y426V (Arabidopsis thaliana, UniProt P55826, Y426V).
T3 construct: expressed in transfected cells; host or cells: E. coli BL21(DE3) hemG (pET24a, T7 promoter)
T3 sequence (P55826 35-537 Y426V): T1 sequence (P55826 35-537 Y426C) with C392V
The essentials: as §1

Assay [4] has as its target T4, AtPPO1 G481K (Arabidopsis thaliana, UniProt P55826, G481K).
T4 construct: expressed in transfected cells; host or cells: E. coli BL21(DE3) hemG, pET24a plasmid
T4 sequence (P55826 35-537 G481K): T1 sequence (P55826 35-537 Y426C) with C392Y, G447K
The essentials: as §1

As usually defined, the inhibition is the share of the control response that was lost under treatment. For the compound `C#CCN1C(=O)C(F)(F)Oc2cc(F)c(-n3c(=O)n(C)c(=S)n(C)c3=O)cc21` [Herbicide B, trifludimoxazin], the inhibition at 0.78 ppm was 2% in assay [1], 24% in assay [2], 5% in assay [3] and 10% in assay [4].

`CCOC(=O)[C@]1(C)CC(c2cc(-n3c(=O)n(C)c(=S)n(C)c3=O)c(F)cc2Cl)=NO1` [Herbicide D, ethyl (5S)-3-[2-chloro-5-(3,5-dimethyl-2,6-dioxo-4-thioxo-1,3,5-triazinan-1-yl)-4-fluoro-phenyl]-5-methyl-4H-isoxazole-5-carboxylate]: the inhibition at 6.25 ppm in assay [1] turned out to be 34%; in assay [2], 31%; in assay [3] it was 16%; in assay [4] it was 12%.

On to `CC(C)N(C)S(=O)(=O)NC(=O)c1cc(-n2c(=O)cc(C(F)(F)F)n(C)c2=O)c(F)cc1Cl` [Herbicide E, saflufenacil], for which the inhibition at 6.25 ppm in assay [1] is 4%; in assay [2], 70%; in assay [3] it was 7%; in assay [4], 0%.
